From PubChem BioAssay AID179 (DTP/NCI, 2004)
Values joined by “and” are separate entries in the source; they are usually repeats but may differ in a detail not shown here. Identical values can stand only once. Active and inactive are the calls of the source.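 Rule for the calls: active = compounds giving half or more protection of infected cells from virus-caused growth loss, again on retest; inactive = the rest.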 Where a SMILES comes first, the peptide text is derived from it. [ ]: non-standard residue; d: D form. The star is where a group is joined. ξ: configuration not given here. NMeF = CN[C@@H](Cc1ccccc1)C(=O)O; NMeN = CN[C@@H](CC(N)=O)C(=O)O; NMeV = CN[C@H](C(=O)O)C(C)C; ξNMeV = CNC(C(=O)O)C(C)C; Boc = CC(C)(C)OC(=O)*; ξNMeA = CNC(C)C(=O)O; ξV = CC(C)C(N)C(=O)O

Tested on: CEM cells HIV-1 protection, formazan growth assay
Assay: NCI AIDS Antiviral Assay
Settings: for IC50: measured here: growth of uninfected CEM cells
How it was run: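 Human CEM cells, uninfected and HIV-1-infected, received five drug concentrations, and growth was read by soluble formazan assay. Compounds giving at least 50% protection were retested; reproducible 100% protection defined confirmed active.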

| Compound | EC50 | IC50 | outcome |
| --- | --- | --- | --- |
| Cc1ccc(-c2c(C#N)c(-c3ccc([N+](=O)[O-])cc3)c(C#N)c(=O)n2NS(=O)(=O)c2ccccc2)cc1 | > 200 µM | 16.6 µM | – |
| Cc1cccc(C(O)c2ccccn2)c1O (centres undefined) | > 200 µM | > 200 µM | – |
| O=C(NC(=O)c1cc(-c2ccccc2)n[nH]1)c1ccccc1 | > 200 µM | 123 µM | – |
| COc1cc2c(cc1OC)C1c3ccccc3CN1CC2 (centres undefined) | > 200 µM | 105 µM | – |
| CCOC(=O)[C@@H]1[C@@H](c2ccccc2)N(C)O[C@@]1(c1ccccc1)C(F)(F)F | > 200 µM | 47.9 µM | – |
| CC(=O)Nc1ccc(/C=C/c2ccc(N=C=S)cc2S(=O)(=O)O)c(S(=O)(=O)O)c1 | > 21.9 µM | > 21.9 µM | – |
| O=C(N/N=C/c1ccccc1)c1c(F)c(F)c(F)c(F)c1F | > 200 µM | 112 µM | – |
| CCOc1ccc(C(=O)Nc2ccc(C3=NCCN3)cc2)cc1C(=O)Nc1ccc(C2=NCCN2)cc1 | 2.95 µM | 117 µM | – |
| Nc1c(N=Nc2ccc(/C=C/c3ccc(N=Nc4cc(S(=O)(=O)O)c5ccccc5c4N)cc3S(=O)(=O)O)c(S(=O)(=O)O)c2)cc(S(=O)(=O)O)c2ccccc12 | 8.71 µM | 77.6 µM | – |
| O=C(OC1C#CCSCC#C/C=C\1)c1cnc2ccccc2n1 (centres undefined) | > 200 µM | 33.1 µM | – |
| CCOC(=O)/C(F)=C/c1cccc(C#N)c1 | > 117 µM | > 117 µM | – |
| CCCCCCC1CCC2CCCC(C)N12 (centres undefined) | > 162 µM | > 162 µM | – |
| CC1(C#N)N(C(=O)c2ccccc2)c2ccccc2N1C(=O)c1ccccc1 | – | – | inactive |
| C[n+]1c2ccccc2n2c3ccccc3c(NCCCn3ccnc3)c(C#N)c21 | > 20 µM | 1.1 µM | – |
| Clc1ccc(CNNCc2cccc(Cl)c2)cc1 | > 200 µM | 102 µM | – |
| O=C(Nc1ccc(Cl)c(Cl)c1)C(=O)C(C1OC(=O)c2ccccc21)[N+](=O)[O-] (centres undefined) | > 87.1 µM | > 87.1 µM | – |
| N#CC(C(=O)CCC(=O)Nc1cccc(C(F)(F)F)c1)c1ccc(Cl)cc1 (centres undefined) | – | – | inactive |
| COC(=O)C(=O)C(CC(=O)Nc1cc(Cl)ccc1Cl)C(=O)OC (centres undefined) | > 7.59 µM | > 7.59 µM | – |
| O=C(NNC1=NCCCN1)Nc1ccccc1 | > 200 µM | > 200 µM | – |
| CC1(C)CC(Nc2ccc(Nc3ccccc3)cc2)CC(C)(C)N1 | > 562 µM | 4.27 µM | – |
| CCOc1ccc(/C=C2/C(=O)N(/C=C3/C(=O)Oc4ccccc4C3=O)C(=NC(C)=O)N2C)cc1 | > 200 µM | > 200 µM | – |

| Compound | EC50 | IC50 | outcome |
| --- | --- | --- | --- |
| C=[N+](CNC(=O)CNC(=O)C(Cc1ccccc1)NC(=O)OC(C)(C)C)C(=O)CNC(=O)C(Cc1ccccc1)NC(=O)OC(C)(C)C (centres undefined) | > 100 µM | > 100 µM | – |
| CCOP(=O)(OCC)C(c1ccccc1)N(C(=O)NC(F)(F)F)c1ccc(C)cc1 (centres undefined) | > 200 µM | > 200 µM | – |
| CC(=O)NNc1nc(C)c(C(/C=C/c2ccc(Cl)cc2)=N\N=C(N)N)s1 | > 18.2 µM | > 18.2 µM | – |
| Cc1c(C#N)c2nc(C(=O)c3ccc(Br)cc3)cc(-c3ccc(Br)cc3)n2c1C | > 50.1 µM | > 50.1 µM | – |
| O=C(Nc1ccc(Cl)cc1C(F)(F)F)C(=O)Nn1c(=S)[nH]c2ccccc2c1=O | > 151 µM | > 151 µM | – |
| CN1C(=O)C(O)C[C@@H]1c1ccc(F)cc1 (some centres undefined) | – | – | inactive |
| CCCCc1c2c(nc3c1CCc1cc4cc5c(nc4nc1-3)-c1nc3c(c(CCCC)c1CC5)CCC/C3=N/OC)/C(=N\OC)CCC2 | > 100 µM | 0.347 µM | – |
| NCC1=NCCN1 | > 200 µM | > 200 µM | – |
| COc1cc2cc(OC)c3cc4c(cc3c2c(OC)c1OC)OCO4 | > 39.8 µM | > 39.8 µM | – |
| CCC1C(=O)OCc2ccccc21 (centres undefined) | > 200 µM | > 200 µM | – |
| CC(=O)n1nnc2ccc([N+](=O)[O-])cc21 | > 34.7 µM | > 34.7 µM | – |
| Cc1ccc(C)c(N2C(=O)C(=O)C(c3nc4ccccc4s3)C(=Nc3cccc4c(=O)[nH][nH]c(=O)c34)C2=O)c1 (centres undefined) | – | – | inactive |
| Cn1c(=O)sc2cc(C(=S)N3CCOCC3)ccc21 | > 141 µM | 64.6 µM | – |
| CC1(C)C(=NNC(=O)C[N+](C)(C)C)C(C)(C)C1=NNC(=O)C[N+](C)(C)C | > 28.8 µM | > 28.8 µM | – |
| Nc1ccc(S(=O)(=O)Nc2nccs2)cc1 | > 200 µM | > 200 µM | – |
| CN(C)c1ccc(-c2nc(N)nc3c2CCCC3)cc1 | > 37.2 µM | > 37.2 µM | – |
| C=CC(C)(C)[C@@]12CC3C(=O)N[C@@H](Cc4ccccc4)C(=O)N3[C@@H]1N(C(C)=O)c1ccccc12 (some centres undefined) | > 81.3 µM | 70.8 µM | – |
| Cc1nn(C(=O)c2ccc(Cl)cc2)c2c1C(c1ccc(Cl)cc1)SC(N)=N2 (centres undefined) | > 200 µM | 36.3 µM | – |
| CC(=O)OC(C)C1C2=C(C(=O)CC1(C)O)C(=O)c1c(ccc(-c3ccc4c(c3O)C(=O)C3=C(C4=O)C(C(C)OC(C)=O)C(C)(O)CC3=O)c1O)C2=O (centres undefined) | > 66.1 µM | 0.263 µM | – |
| c1csc(-c2cc(-c3cccs3)c(-c3cccs3)s2)c1 | > 200 µM | 38.9 µM | – |
| CC(O)C(NC(=O)C1CSSCC(NC(=O)C(Cc2ccccc2)NC(=O)OCC2c3ccccc3-c3ccccc32)C(=O)NC(Cc2ccccc2)C(=O)NC(Cc2cn(C=O)c3ccccc23)C(=O)NC(CCCCNC(=O)OCC2c3ccccc3-c3ccccc32)C(=O)NC(C(C)O)C(=O)N1)C(N)=O (centres undefined) | > 50.1 µM | 6.46 µM | – |

| Compound | EC50 | IC50 | outcome |
| --- | --- | --- | --- |
| CC(C)NCC(O)c1ccc(OCc2ccccc2)c(OCc2ccccc2)c1-c1ccccc1 (centres undefined) | > 200 µM | 3.09 µM | – |
| CN(C)c1nc(=NCc2ccccc2)ss1 | > 200 µM | 10.2 µM | – |
| O=C(O)CCc1ccc(O)c(O)c1 | – | – | inactive |
| COC(=O)C1Cc2c(C)cccc2C1=O (centres undefined) | > 200 µM | 110 µM | – |
| O=C(c1ccccc1)C(c1ccccc1)C1(O)C(=O)Nc2c(Cl)ccc(Cl)c21 (centres undefined) | > 17.4 µM | > 17.4 µM | – |
| Cc1ccc(S(=O)(=O)NC(CCC(=O)NN)C(=O)NN)cc1 (centres undefined) | > 200 µM | > 200 µM | – |
| COC(=O)c1cc(C)ccc1CC(Cc1cccc(C)c1)C(=O)OC (centres undefined) | > 200 µM | > 200 µM | – |
| Cc1cnc2nc(N)nc(N)c2n1 | > 200 µM | > 200 µM | – |
| CC(=O)OC1COC(n2c(-c3ccc(Cl)cc3)cc(-c3ccccc3)c(C#N)c2=S)C(OC(C)=O)C1OC(C)=O (centres undefined) | > 200 µM | > 200 µM | – |
| N#CC(C(=O)CCC(=O)Nc1cccc(Cl)c1)c1ccccc1 (centres undefined) | > 759 µM | > 759 µM | – |
| Cc1ccc(S(=O)(=O)OC2CSS(=O)CC2OS(=O)(=O)c2ccc(C)cc2)cc1 (centres undefined) | > 200 µM | 9.33 µM | – |
| FC(F)(F)c1ccc2c(c1)N(CCCNCCN1CCOCC1)c1ccccc1S2 | > 355 µM | 20.9 µM | – |
| COC1=CC(=O)OC(/C=C(C)/C=C/C2=C(C)CCCC2(C)C)C1 (centres undefined) | – | – | inactive |
| COc1cc2c(c(O)c1OC)C(O)C1CCC(=O)N1C2c1cccc2ccccc12 (centres undefined) | > 200 µM | 52.5 µM | – |
| CC(/C=N/N=C(N)N)=N\N=C(N)N | > 977 µM | 2.75 µM and 0.513 µM | – |
| NC(Cc1ccc(OCc2ccccc2)cn1)C(=O)O (centres undefined) | > 200 µM | > 200 µM | – |
| COc1c(O)cc2oc(-c3ccc(O)cc3)cc(=O)c2c1O | > 148 µM | 35.5 µM | – |
| S=C(N/N=C\c1ccccn1)N(Cc1ccccn1)Cc1ccccn1 | > 2 µM | 0.955 µM | – |
| OC1CCC(COC(c2ccccc2)(c2ccccc2)c2ccccc2)O1 (centres undefined) | > 200 µM | 24.5 µM | – |
| CCOC(=O)C1=C(C)N(c2ccccc2)C2=C(C(=O)N(c3ccccc3)C2c2ccccc2)C1c1ccccc1 (centres undefined) | > 67.6 µM | > 67.6 µM | – |
| CC(=O)OC1OC(=O)C(C)(C(C)=O)C1C (centres undefined) | – | – | inactive |

| Compound | EC50 | IC50 | outcome |
| --- | --- | --- | --- |
| CCN(CC)CC(=O)NC1c2ccccc2Sc2c(C)cccc21 (centres undefined) | > 148 µM | 60.3 µM | – |
| O=S(=O)([O-])c1ccc(C=Nc2ccccc2)c([O-])c1.O=S(=O)([O-])c1ccc(C=Nc2ccccc2)c([O-])c1.[Co+2] | > 407 µM | 95.5 µM | – |
| O=[N+]([O-])C(/C=C(\Cl)[N+](=O)[O-])=C(N1CCOCC1)N1CCOCC1 | > 200 µM | 110 µM | – |
| CCCCOP(=O)(/C=C\c1ccccn1)OCCCC | > 120 µM | > 120 µM | – |
| CN1C(=O)C2CC(=O)N(Cc3ccccc3)C(=O)C2C1=O (centres undefined) | > 288 µM | > 288 µM | – |
| O=C1c2ccccc2N(O)C1(c1ccccc1)C1CCCC=C1N1CCOCC1 (centres undefined) | – | – | inactive |
| CCOC(=O)c1c(NS(=O)(=O)c2ccc(Br)cc2)sc2c1CCCC2 | – | – | inactive |
| CC(=O)Oc1c2c(c(OC(C)=O)c3c1C(=O)c1ccccc1C3=O)CCC([C@H](C)O)=C2 | – | – | inactive |
| CC(=O)N/N=C(\N)c1nc2c(n3nc(C)nc13)CCCC2 | > 200 µM | 91.2 µM | – |
| Cc1cc(NS(=O)(=O)c2ccc(NC(=O)c3ccc4[nH]c5ccccc5c(=O)c4c3)cc2)no1 | > 200 µM | 93.3 µM | – |
| Cc1cc2c(c(C(=O)O)c1C)-c1cccc(Cl)c1C2=O | – | – | inactive |
| CC(C)(Oc1ccc(C(=O)c2ccc(Cl)cc2)cc1Cl)C(=O)N1CCN(c2ccccc2)CC1 | > 20 µM | > 20 µM | – |
| CCOP(=O)(CC(=O)c1ccccc1)OCC | > 977 µM | > 977 µM | – |
| CN(O)C1CC(=O)OC1CO[Si](C)(C)C(C)(C)C (centres undefined) | > 200 µM | 51.3 µM | – |
| S=C(S)N1CCN(c2ccc(Cl)c(Cl)c2)CC1 | > 200 µM | 26.9 µM | – |
| COc1ccc(/C=C(\C#N)c2ccc(OC)cc2)cc1 | > 200 µM | 8.13 µM | – |
| Cc1cc2ccc(=O)oc2c2c1OC(C)(C)[C@H](OC(=O)C13CCC(C)(C(=O)O1)C3(C)C)[C@@H]2OC(=O)C12CCC(C)(C(=O)O1)C2(C)C (some centres undefined) | 0.562 µM | 24 µM | – |
| COC(=O)C(C)N(C)C(=O)[C@H](CC(N)=O)N(C)C(=O)[C@@H]1CCCN1C(=O)[C@H](C(C)C)N(C)C(=O)C(C(C)C)N(C)C(=O)[C@H](Cc1ccccc1)N(C)C(=O)C(NC(=O)OC(C)(C)C)C(C)C (some centres undefined) (Boc-[ξV][NMeF][ξNMeV][NMeV]P[NMeN][ξNMeA]-OMe) | > 100 µM | 17.8 µM | – |
| COc1cc2nn(-c3ccccc3)nc2c2nonc12 | > 200 µM | > 200 µM | – |
| Nc1ccc2c(c1)[O][Sn]([c]1ccccc1)([c]1ccccc1)[O]C2=O | – | – | inactive |
